Patent US8901126B2, “Substituted imidazo[1,5-A]quinoxalin-4-ones are useful for preventing or treating storage dysfunction, voiding dysfunction and bladder/urethral diseases” (priority 2010, dated 2014)
Counter-ions that a name gives are not always drawn.

Experiments:
PDE9 = biological target: T1, PDE9 (Homo sapiens, UniProt O76083); assay: PDE9-inhibiting activity (SPA, 3H-cGMP degradation); type: biochemical; details: PDE9-inhibiting activity (IC50 values), cGMP 1 μM, 30° C.
T1 construct: made in house
T1 sequence (O76083 whole entry): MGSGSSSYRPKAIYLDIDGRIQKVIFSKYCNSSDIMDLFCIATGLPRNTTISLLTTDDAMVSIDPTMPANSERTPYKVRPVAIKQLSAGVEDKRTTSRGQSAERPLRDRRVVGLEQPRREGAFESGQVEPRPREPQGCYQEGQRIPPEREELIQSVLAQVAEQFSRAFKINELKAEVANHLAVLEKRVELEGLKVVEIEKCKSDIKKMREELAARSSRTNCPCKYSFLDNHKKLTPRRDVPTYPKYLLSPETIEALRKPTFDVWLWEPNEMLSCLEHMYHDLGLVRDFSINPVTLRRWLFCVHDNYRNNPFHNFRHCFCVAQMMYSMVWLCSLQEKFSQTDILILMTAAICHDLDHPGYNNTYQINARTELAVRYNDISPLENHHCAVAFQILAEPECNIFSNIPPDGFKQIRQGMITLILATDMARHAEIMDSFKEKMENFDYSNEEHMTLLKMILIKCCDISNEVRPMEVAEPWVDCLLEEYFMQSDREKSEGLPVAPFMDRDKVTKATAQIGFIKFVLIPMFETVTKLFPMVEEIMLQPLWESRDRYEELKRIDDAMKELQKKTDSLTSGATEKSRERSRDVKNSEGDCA
Description: The PDE9 used in the present experiment was expressed/purified by the method as in, for example, Guipponi et al., and Fisher et., al. (Fisher, D. A., et al., J. Biol. Chem., 273: pp. 15559-15564 (1998), Guipponi, M., et al., Hum. Genet., 103: pp. 386-392 (1998)).
(2) Evaluation of PDE9-Inhibiting Activity
The PDE9-inhibiting activity was measured by the following method. That is, to a buffer solution containing tris(hydroxymethyl)aminomethane-hydrochloric acid (40 mM, pH 8.0), magnesium chloride (5 mM), and 2-mercaptoethanol (4 mM) were added cGMP (1 μM) and ^3H-cGMP (0.33 μCi/ml) to give a substrate buffer solution. A test substance solution and an enzyme solution which had been adjusted to an optimal concentration were added thereto to perform a reaction at 30° C. The enzyme reaction was stopped by the addition of Scintillation Proximity Assay (SPA) Beads (Perkin Elmer, USA) containing 5 mM 3-isobutyl-1-methylxanthine (IBMX). For the enzyme activity, the amount of 5′-GMP, which is a reaction degradation product bound to SPA beads, was measured with a TopCount microplate reader (Hewlett Packard, USA).
The inhibitory rate was calculated by taking the radioactivity of the control containing no test substance as (A), taking the radioactivity of the blank containing no enzyme as (B), and taking the radioactivity of the test substance as (C), and using the following equation. Inhibitory rate=100−{(C)−(B)/(A)−(B)}×100(%)

IC50 (PDE9) [nM] | melting point | Structure (SMILES)
84 | 241 to 243 °C | COc1cc2c(cn1)N(C(=O)c1cc3[nH]c(=O)c4cnc(C5CCOC5)n4c3cc1C)CC2 (stereo not shown) [Example 27]
45 |  | Cc1cnc2c(c1)CCN2C(=O)c1cc2[nH]c(=O)c3cnc(C4CCOC4)n3c2cc1C (single isomer, unassigned) [Example 26(b)]
51 | 275 to 277 °C | COc1cc2c(cn1)N(C(=O)c1cc3[nH]c(=O)c4cnc(C5CCOCC5)n4c3cc1F)CC2 [Example 2, 8-fluoro-7-[(5-methoxy-2,3-dihydro-1H-pyrrolo[2,3-c]pyridin-1-yl)carbonyl]-1-(tetrahydro-2H-pyran-4-yl)imidazo[1,5-a]quinoxalin-4(5H)-one]
24 |  | Cc1cc2c(cc1C(=O)N1CCc3cc(Br)cnc31)[nH]c(=O)c1cnc(C3CCOC3)n12 (single isomer, unassigned) [Example 29(a)]
47 |  | CCc1cnc2c(c1)CCN2C(=O)c1cc2[nH]c(=O)c3cnc(C4CCOC4)n3c2cc1C (single isomer, unassigned) [Example 28(b)]
38 |  | Cc1cc2c(cc1C(=O)N1CCc3cc(F)c(F)cc31)[nH]c(=O)c1cnc(C3CCOC3)n12 (single isomer, unassigned) [Example 30(a)]
139 |  | CCc1cnc2c(c1)CCN2C(=O)c1cc2[nH]c(=O)c3cnc(C4CCOC4)n3c2cc1C (single isomer, unassigned) [Example 28(a)]
25 |  | COCc1cc2c(cc1C(=O)N1CCc3cc(Br)cnc31)[nH]c(=O)c1cnc(C3CCOC3)n12 (single isomer, unassigned) [Example 43(a)]
22 | 314 to 316 °C (dec.) | COc1cc2c(cn1)N(C(=O)c1cc3[nH]c(=O)c4cnc(C5CCOCC5)n4c3cc1Cl)CC2 [Example 21]
22 | 297 to 299 °C | COc1cc2c(cn1)N(C(=O)c1cc3[nH]c(=O)c4cnc(C5CCCOC5)n4c3cc1C)CC2 (stereo not shown) [Example 3, 7-[(5-methoxy-2,3-dihydro-1H-pyrrolo[2,3-c]pyridin-1-yl)carbonyl]-8-methyl-1-(tetrahydro-2H-pyran-3-yl)imidazo[1,5-a]quinoxalin-4(5H)-one]
16 |  | CCc1cnc2c(c1)CCN2C(=O)c1cc2[nH]c(=O)c3cnc(C4CCOC4)n3c2cc1COC (single isomer, unassigned) [Example 40(b)]
77 |  | CCc1cnc2c(c1)CCN2C(=O)c1cc2[nH]c(=O)c3cnc(C4CCOC4)n3c2cc1COC (single isomer, unassigned) [Example 40(a)]
52 |  | CCc1cnc2c(c1)CCN2C(=O)c1cc2[nH]c(=O)c3cnc(C4CCOC4)n3c2cc1C (stereo not shown) [Example 28]
11 |  | Cc1cc2c(cc1C(=O)N1CCc3cc(F)c(F)cc31)[nH]c(=O)c1cnc(C3CCOC3)n12 (stereo not shown) [Example 30]
137 |  | COc1cc2c(cn1)N(C(=O)c1cc3[nH]c(=O)c4cnc(C5CCOC5)n4c3cc1C)CC2 (single isomer, unassigned) [Example 27(a)]
2.1 | 300 to 305 °C (dec.) | Cc1cc2c(cc1C(=O)N1CCc3cc(Br)cnc31)[nH]c(=O)c1cnc(C3CCCOC3)n12 (stereo not shown) [Example 47]
62 |  | COCc1cc2c(cc1C(=O)N1CCc3cc(C)cnc31)[nH]c(=O)c1cnc(C3CCOC3)n12 (single isomer, unassigned) [Example 25(a)]
15 |  | Cc1cc2c(cc1C(=O)N1CCc3cc(Br)cnc31)[nH]c(=O)c1cnc(C3CCOC3)n12 (stereo not shown) [Example 29]
62 |  | COCc1cc2c(cc1C(=O)N1CCc3cc(OC)ncc31)[nH]c(=O)c1cnc(C3CCOC3)n12 (single isomer, unassigned; (-)) [Example 4(a), (−)-7-[(5-methoxy-2,3-dihydro-1H-pyrrolo[2,3-c]pyridin-1-yl)carbonyl]-8-(methoxymethyl)-1-(tetrahydrofuran-3-yl)imidazo[1,5-a]quinoxalin-4(5H)-one dihydrochloride]
152 |  | Cc1cnc2c(c1)CCN2C(=O)c1cc2[nH]c(=O)c3cnc(C4CCOC4)n3c2cc1C (single isomer, unassigned) [Example 26(a)]

The remaining lines, values behind:

Structure (SMILES) | IC50 (PDE9) [nM] | melting point
COCc1cccc2c1CN(C(=O)c1cc3[nH]c(=O)c4cnc(C5CCOCC5)n4c3cc1C)C2 [Example 14] | 14 | 
Cc1cc2c(cc1C(=O)N1Cc3c(F)ccc(F)c3C1)[nH]c(=O)c1cnc(C3CCOC3)n12 (single isomer, unassigned) [Example 39(b)] | 14 | 
COc1cc2c(cc1C(=O)N1CCc3cc(Br)cnc31)[nH]c(=O)c1cnc(C3CCOCC3)n12 [Example 23] | 4.9 | 316 to 319 °C (dec.)
COCc1cc2c(cc1C(=O)N1CCc3cc(Br)cnc31)[nH]c(=O)c1nnc(CC3CC3)n12 [Example 44] | 6.1 | 168 to 170 °C
CCc1cnc2c(c1)CCN2C(=O)c1cc2[nH]c(=O)c3nnc(CC4CC4)n3c2cc1C [Example 6, 1-(cyclopropylmethyl)-7-[(5-ethyl-2,3-dihydro-11′-pyrrolo[2,3-b]pyridin-1-yl)carbonyl]-8-methyl[1,2,4]triazolo[4,3-a]quinoxalin-4(5H)-one dihydrochloride] | 64 | 
CCc1cc2c(cc1C(=O)N1CCc3cc(Br)cnc31)[nH]c(=O)c1nnc(C3CCC3)n12 [Example 35] | 19 | 
CCc1cc2c(cc1C(=O)N1CCc3cc(Br)cnc31)[nH]c(=O)c1nnc(CC3CC3)n12 [Example 18] | 5.4 | 
CCc1cc2c(cc1C(=O)N1CCc3cc(F)ccc31)[nH]c(=O)c1nnc(CC3CC3)n12 [Example 17] | 8.5 | 
COC1CC(c2nnc3c(=O)[nH]c4cc(C(=O)N5CCc6cc(Br)ccc65)c(C)cc4n23)C1.Cl (stereo not shown) [Example 15] | 2.8 | 188 to 189 °C
CCc1cc2c(cc1C(=O)N1CCc3cc(Cl)ccc31)[nH]c(=O)c1nnc(CC3CC3)n12 [Example 16] | 3.3 | 
CCc1cnc2c(c1)CCN2C(=O)c1cc2[nH]c(=O)c3nnc(CC4CC4)n3c2cc1C (as salt: hydrochloride) [Example 6, 1-(cyclopropylmethyl)-7-[(5-ethyl-2,3-dihydro-11′-pyrrolo[2,3-b]pyridin-1-yl)carbonyl]-8-methyl[1,2,4]triazolo[4,3-a]quinoxalin-4(5H)-one dihydrochloride] |  | 173 to 175 °C
O=C(c1cc2[nH]c(=O)c3cnc(C4CCOCC4)n3c2cc1F)N1CCc2cc(Cl)ccc21 [Example 12] | 3.6 | 
COCc1cc2c(cc1C(=O)N1CCc3cc(Br)cnc31)[nH]c(=O)c1nnc(C3CCC3)n12 [Example 41] | 18 | 174 to 176 °C
Cc1cc2c(cc1C(=O)N1Cc3cccc(CN(C)C)c3C1)[nH]c(=O)c1cnc(C3CCOCC3)n12 [Example 11] | 31 | 
COCc1cc2c(cc1C(=O)N1Cc3c(F)ccc(F)c3C1)[nH]c(=O)c1cnc(C3CCOC3)n12 (single isomer, unassigned) [Example 45(a)] | 26 | 
Cc1cc2c(cc1C(=O)N1c3ccc(Cl)cc3CC1C)[nH]c(=O)c1nnc(C3CCOCC3)n12.Cl (stereo not shown) [Example 7] | 2.1 | 324 to 326 °C
Cc1cc2c(cc1C(=O)N1CCc3cc(Br)cnc31)[nH]c(=O)c1cnc([C@@H]3CCC[C@@H]3O)n12 (racemic) [Example 5, 7-[(5-bromo-2,3-dihydro-1H-pyrrolo[2,3-b]pyridin-1-yl)carbonyl]-1-(cis-2-hydroxycyclopentyl)-8-methylimidazo[1,5-a]quinoxalin-4(5H)-one] | 62 | 296 to 303 °C
Cc1cc2c(cc1C(=O)N1Cc3c(F)ccc(F)c3C1)[nH]c(=O)c1nnc(C3CCC3)n12 [Example 36] | 53 | 
Cc1cc2c(cc1C(=O)N1CC(C)c3cc(Cl)ccc31)[nH]c(=O)c1nnc(C3CCOCC3)n12.Cl (stereo not shown) [Example 32] | 2.6 | 231 to 234 °C
COCC1Cc2cc(Cl)ccc2N1C(=O)c1cc2[nH]c(=O)c3nnc(C4CCOCC4)n3c2cc1C (stereo not shown) [Example 9] | 1.3 | 
CCc1cc2c(cc1C(=O)N1Cc3c(F)ccc(F)c3C1)[nH]c(=O)c1nnc(C3CCC3)n12 [Example 37] | 53 | 
Cl.O=C(c1cc2[nH]c(=O)c3cnc(C4CCOCC4)n3c2cc1OCC1CCOC1)N1CCc2cc(F)ccc21 (stereo not shown) [Example 10] | 4.5 | 177 to 180 °C
COC1CC(c2nnc3c(=O)[nH]c4cc(C(=O)N5CCc6cc(Br)cnc65)c(C)cc4n23)C1 (stereo not shown) [Example 34] | 7.5 | 
Cc1cc2c(cc1C(=O)N1Cc3c(F)ccc(F)c3C1)[nH]c(=O)c1nnc(CC3CC3)n12 [Example 38] | 28 | 
Cc1cc2c(cc1C(=O)N1CCc3cc(F)ccc31)[nH]c(=O)c1cnc([C@@H]3CCC[C@@H]3O)n12 [Example 22] | 56 | 197 to 199 °C
Cc1cc2c(cc1C(=O)N1Cc3c(F)ccc(F)c3C1)[nH]c(=O)c1cnc(C3CCOC3)n12 (single isomer, unassigned) [Example 39(a)] | 52 | 
Cc1cc2c(cc1C(=O)N1CC(C)(C)c3cc(Br)cnc31)[nH]c(=O)c1nnc(C3CCOCC3)n12 [Example 33] | 0.81 | 
